Source: patent US20150366836A1, “METHOD AND PHARMACEUTICAL COMPOSITION FOR TREATING COLORECTAL CANCER” (National Dong Hua University, priority 2014, published 2015)

What was measured:
Format in all cases: cell-based
HT-29 cells [1] = assay: Cell cycle analysis by flow cytometer (PI staining), HT-29 cells
Procedure: (§1) The results of Example 2 in cell viability hinted the effects of HCD, PG, and 5-FU on arresting cell cycle. In this example, the phase of cell cycle of Caco2 and HT-29 cells after the treatment listed in Table 1 was determined by flow cytometer. Briefly, 7×10^4 cells per well were inoculated in 12-wells plate and incubated overnight at 37° C., 5% CO2. Then, cells were treated according to the treatment listed in Table 1 by indicated time period. After treatment, cells were harvested by trypsin and fixed with 70% ethanol at −20° C. for at least 3 hr. The cells were washed in cold PBS twice and then incubated with 1 mL (v/v) staining solution (20 μg/mL propidium iodide (PI), 0.1% Triton X-100, 0.2 mg/mL Rnase) at 37° C. for 30 minutes. Lastly, cells were analyzed by flow cytometer (Cytomics™ FC500, Backman, Fullerton, Calif., USA). Data from 10,000 cells were collected for each experimental group.

Caco2 cells [2] = assay: Cell cycle analysis by flow cytometer (PI staining), Caco2 cells
Procedure: as §1

HT-29 cells [3] = assay: MTT assay cell viability, HT-29 cells
Procedure: (§2) Two cell lines were used in this study, Caco2 cells and HT-29 cells. Both of them are colorectal cancer cells. Caco2 cells and HT-29 cells were maintained in DMEM (or RPMI) supplemented with 20% or 10% fetal bovine serum (FBS; GIBCO), pH 7.4 at 37° C. with continuous circulation of 5% CO2 incubator. The medium was changed every 2 days and the cells were trypsinized using trypsin/EDTA when reaching 80%-90% confluence.
(§3) In this example, the effects of HCD, PG, and 5-FU on the viability of Caco2 cells and HT-29 cells were examined. The MTT assay was employed for this purpose. The MTT (3-(4-,5-dimethylthiazol-2-yl)-2,5-diphenyltetrazolium bromide) assay is a common colorimetric method in the field for cell viability analysis. MTT (yellow tetrazolium salt) is reduced to a purple formazan by living cells and detection to the purple formazan can be calculated as the cell viability.
(§4) Briefly, cells (Caco2 or HT-29) were seeded in 96-well plate (7×10^3 cell per well) and incubated overnight (37° C., 5% CO2).
(§5) On the other hand, in the pretreatment analysis, cells (Caco2 or HT-29) were seeded in 96-well plate (7×10^3 cell per well) and incubated overnight (37° C., 5% CO2). In according to the treatments listed in the Table 1, Cells were pre-treated by HCD or PG for 6, 12, 24, 36, or 48 hr and then were treated by 5-FU for additional 24 hr.

Caco2 cells [4] = assay: MTT assay cell viability, Caco2 cells
Procedure: as §2, §3, §4, §5

`CCCCCC1=C/C(=C/c2[nH]c(-c3ccc[nH]3)cc2OC)N=C1C` [PG, Prodigiosin] was tested, and the “G0/G1 (%)” value (HT-29 cells [1]; HT-29, 0.5 μM, 24 hr) was 65.3 ± 5.66 %, the “G2/M (%)” value (HT-29 cells [1]; HT-29, 0.5 μM, 24 hr) was 11.65 ± 0.78% and the “S (%)” value (HT-29 cells [1]; HT-29, 0.5 μM, 24 hr) was 5.9 ± 1.13 %. For the same molecule, the “Sub G1 (%)” value (HT-29 cells [1]; HT-29, 0.5 μM, 24 hr) was 14.65 ± 4.03 %, the “G0/G1 (%)” value (HT-29 cells [1]; HT-29, 0.5 μM, 36 hr) was 48.28 ± 6.29 % and the “G2/M (%)” value (HT-29 cells [1]; HT-29, 0.5 μM, 36 hr) was 5.8 ± 0.84%. The “S (%)” value (HT-29 cells [1]; HT-29, 0.5 μM, 36 hr) was 5.8 ± 0.68 %, the “Sub G1 (%)” value (HT-29 cells [1]; HT-29, 0.5 μM, 36 hr) was 37.88 ± 7.42 % and the “G0/G1 (%)” value (HT-29 cells [1]; HT-29, 2 μM, 24 hr) was 54.35 ± 5.02%. The “G2/M (%)” value (HT-29 cells [1]; HT-29, 2 μM, 24 hr) was 12.35 ± 2.33%, the “S (%)” value (HT-29 cells [1]; HT-29, 2 μM, 24 hr) was 9.85 ± 1.2% and the “Sub G1 (%)” value (HT-29 cells [1]; HT-29, 2 μM, 24 hr) was 20.05 ± 5.87 %. The “G0/G1 (%)” value (HT-29 cells [1]; HT-29, 2 μM, 36 hr) was 29.15 ± 3.18 %, the “G2/M (%)” value (HT-29 cells [1]; HT-29, 2 μM, 36 hr) was 14.4 ± 0.71 % and the “S (%)” value (HT-29 cells [1]; HT-29, 2 μM, 36 hr) was 12.3 ± 1.13 %. For the same molecule, the “Sub G1 (%)” value (HT-29 cells [1]; HT-29, 2 μM, 36 hr) was 40.25 ± 3.32 %, the “G0/G1 (%)” value (HT-29 cells [1]; HT-29, 5 μM, 24 hr) was 49.8 ± 7.07% and the “G2/M (%)” value (HT-29 cells [1]; HT-29, 5 μM, 24 hr) was 13.25 ± 0.21%. The “S (%)” value (HT-29 cells [1]; HT-29, 5 μM, 24 hr) was 12.9 ± 0%, the “Sub G1 (%)” value (HT-29 cells [1]; HT-29, 5 μM, 24 hr) was 19.6 ± 7.95 % and the “G0/G1 (%)” value (HT-29 cells [1]; HT-29, 5 μM, 36 hr) was 27.85 ± 1.06 %. For the same molecule, the “G2/M (%)” value (HT-29 cells [1]; HT-29, 5 μM, 36 hr) was 3.2 ± 0.85 %, the “S (%)” value (HT-29 cells [1]; HT-29, 5 μM, 36 hr) was 5.9 ± 0.42 % and the “Sub G1 (%)” value (HT-29 cells [1]; HT-29, 5 μM, 36 hr) was 61.85 ± 2.47 %. The “cell cycle phases after pre-treatment then 5-FU (in words)” value (HT-29 cells [1]; HT-29, pre-treatment, then 5-FU) was “increase of sub G1 phase and decrease of G2/M phase”, the “G0/G1 (%)” value (Caco2 cells [2]; Caco2, 0.5 μM, 36 hr) was 51.3 ± 3.8% and the “G2/M (%)” value (Caco2 cells [2]; Caco2, 0.5 μM, 36 hr) was 14.93 ± 4.27%. The “S (%)” value (Caco2 cells [2]; Caco2, 0.5 μM, 36 hr) was 12.97 ± 0.49%, the “Sub G1 (%)” value (Caco2 cells [2]; Caco2, 0.5 μM, 36 hr) was 18.67 ± 2.06 % and the “G0/G1 (%)” value (Caco2 cells [2]; Caco2, 0.5 μM, 48 hr) was 53.43 ± 13.12%. The “G2/M (%)” value (Caco2 cells [2]; Caco2, 0.5 μM, 48 hr) was 15.9 ± 8.23%, the “S (%)” value (Caco2 cells [2]; Caco2, 0.5 μM, 48 hr) was 18.17 ± 7.05% and the “Sub G1 (%)” value (Caco2 cells [2]; Caco2, 0.5 μM, 48 hr) was 11.67 ± 4.07%. The “G0/G1 (%)” value (Caco2 cells [2]; Caco2, 2 μM, 36 hr) was 44.53 ± 7.05%, the “G2/M (%)” value (Caco2 cells [2]; Caco2, 2 μM, 36 hr) was 17.33 ± 1.95% and the “S (%)” value (Caco2 cells [2]; Caco2, 2 μM, 36 hr) was 14.33 ± 1.76%. For the same molecule, the “Sub G1 (%)” value (Caco2 cells [2]; Caco2, 2 μM, 36 hr) was 21.47 ± 3.41 %, the “G0/G1 (%)” value (Caco2 cells [2]; Caco2, 2 μM, 48 hr) was 49.87 ± 9.56% and the “G2/M (%)” value (Caco2 cells [2]; Caco2, 2 μM, 48 hr) was 12.43 ± 4.48%. The “S (%)” value (Caco2 cells [2]; Caco2, 2 μM, 48 hr) was 15 ± 6.14%, the “Sub G1 (%)” value (Caco2 cells [2]; Caco2, 2 μM, 48 hr) was 18.77 ± 7.49% and the “G0/G1 (%)” value (Caco2 cells [2]; Caco2, 5 μM, 36 hr) was 37.9 ± 6.04 %. For the same molecule, the “G2/M (%)” value (Caco2 cells [2]; Caco2, 5 μM, 36 hr) was 15.43 ± 7.86%, the “S (%)” value (Caco2 cells [2]; Caco2, 5 μM, 36 hr) was 14.23 ± 3.12% and the “Sub G1 (%)” value (Caco2 cells [2]; Caco2, 5 μM, 36 hr) was 30.07 ± 6.7 %. For the same molecule, the “G0/G1 (%)” value (Caco2 cells [2]; Caco2, 5 μM, 48 hr) was 45.83 ± 3.3%, the “G2/M (%)” value (Caco2 cells [2]; Caco2, 5 μM, 48 hr) was 8.7 ± 2.07 % and the “S (%)” value (Caco2 cells [2]; Caco2, 5 μM, 48 hr) was 11.67 ± 2%. For the same molecule, the “Sub G1 (%)” value (Caco2 cells [2]; Caco2, 5 μM, 48 hr) was 33.53 ± 6.73 %, the “G2/M phase after pre-treatment then 5-FU (in words)” value (Caco2 cells [2]; Caco2, 12 and 24 hr pretreatment of 1 or 2 μM, then 5-FU) was “decreased” and the “effect of pre-treating on efficacy of 5-FU in the subsequent treatment (MTT)” value (HT-29 cells [3]; HT-29, pre-treatment 6-48 hr, then 5-FU 2 μM 24 hr) was “significantly enhanced the efficacy of 5-FU”. The IC50 (HT-29 cells [3]; Homo sapiens, HT-29 cells, 36 hr treatment) was 0.5 µM, the “effect of pre-treating on efficacy of 5-FU in the subsequent treatment (MTT)” value (Caco2 cells [4]; Caco2, pre-treatment 6-48 hr, then 5-FU 2 μM 24 hr) was “significantly enhanced the efficacy of 5-FU” and the IC50 (Caco2 cells [4]; Homo sapiens, Caco-2, Caco2 cells, 48 hr treatment) was 2 µM.
